# Measured values: patent US9328083B2, “2-aminated methylene or 2-esterified methylene tanshinone derivatives, and preparation method and application thereof” (HANGZHOU BENSHENG PHARMACEUTICAL CO., LTD., priority 2011, dated 2016)
# What was measured:
# [1] = system: H9 (acute lymphoblastic leukemia, ALL); test: MTT growth inhibition of leukemia cells, 72 h; assay type: cell-based, human
# Method in brief: (§1)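 MTT assay of viable cells following 72 h compound treatment at 37 °C. Cultures contained 6000 cells per well in RPMI-1640 plus 10% fetal bovine serum.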
# [2] = system: Jurkat (acute lymphoblastic leukemia, ALL); test: MTT growth inhibition of leukemia cells, 72 h; assay type: cell-based, human; conditions: Homo sapiens, 72 h
# Method in brief: as §1
# [3] = system: K562/adr (drug-resistant, chronic myeloid leukemia, CML); test: MTT growth inhibition of leukemia cells, 72 h; assay type: cell-based, human; conditions: Homo sapiens, K562/Adr
# Method in brief: as §1
# [4] = system: Kasumi-1 (acute myeloid leukemia M2 type, AML-M2); test: MTT growth inhibition of leukemia cells, 72 h; assay type: cell-based, human; conditions: Homo sapiens, Kasumi-1, 72 h
# Method in brief: as §1
# [5] = system: NB4 (acute promyelocytic leukemia, AML); test: MTT growth inhibition of leukemia cells, 72 h; assay type: cell-based, human; conditions: Homo sapiens, NB4, 72 h
# Method in brief: as §1
# [6] = system: RPMI8226 (multiple myeloma); test: MTT growth inhibition of multiple myeloma cells, 72 h; assay type: cell-based, human; conditions: Homo sapiens, RPMI 8226, 72 h
# Method in brief: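 RPMI8226 myeloma cells, 6000 per well in 1640 medium with 10% FBS, exposed to compounds at a range of concentrations (diluted from 10 mg/mL DMSO stock) for 72 h at 37° C, 5% CO2. Viable cells then determined by MTT.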
# [7] = system: A549 (human lung cancer); test: MTT growth inhibition of human solid tumor cells, 72 h; assay type: cell-based; conditions: Homo sapiens, A549, 72 h
# Method in brief: (§2)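 Cells were seeded at 4000 per well in DMEM High Glucose with 10% fetal bovine serum and left 24 h at 37° C, 5% CO2. Tanshinone I derivatives were added at a range of concentrations, diluted in medium from a 10 mg/mL DMSO stock, and viable cell concentration was then determined.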
# [8] = system: Becap37 (human breast cancer cell); test: as above; assay type: cell-based; conditions: Homo sapiens, Becap-37, 72 h
# Method in brief: as §2
# [9] = system: CNE (nasopharyngeal carcinoma cell); test: as above; assay type: cell-based; conditions: Homo sapiens
# Method in brief: as §2
# [10] = system: CaES-17 (esophageal cancer cell); test: as above; assay type: cell-based; conditions: Homo sapiens, CaEs17, CaEs-17, 72 h
# Method in brief: as §2
# [11] = system: Hela (human cervical cancer cell); test: as above; assay type: cell-based
# Method in brief: as §2
# [12] = system: Hep G2 (human liver cancer cell); test: as above; assay type: cell-based; conditions: Homo sapiens, HepG2, Hep G2, 72 h
# Method in brief: as §2
# [13] = system: Hep-2 (laryngeal carcinoma); test: as above; assay type: cell-based
# Method in brief: as §2
# [14] = system: MG63 (osteosarcoma); test: as above; assay type: cell-based; conditions: Homo sapiens, MG-63, 72 h
# Method in brief: as §2
# [15] = system: MGC 803 (human gastric cancer cell); test: as above; assay type: cell-based; conditions: Homo sapiens, MGC-803, 72 h
# Method in brief: as §2
# [16] = system: PANC-1 (pancreatic cancer); test: as above; assay type: cell-based; conditions: Homo sapiens, PANC-1, 72 h
# Method in brief: as §2
# [17] = system: PC-3 (prostate cancer); test: as above; assay type: cell-based; conditions: Homo sapiens, PC-3, 72 h
# Method in brief: as §2
# [18] = system: RKO (human colon adenocarcinoma cell); test: as above; assay type: cell-based; conditions: Homo sapiens
# Method in brief: as §2
# [19] = system: SK-OV-3 (ovarian cancer cell); test: as above; assay type: cell-based; conditions: Homo sapiens, SK-OV-3, 72 h
# Method in brief: as §2
# [20] = system: U87 MG (malignant glioma cell); test: as above; assay type: cell-based; conditions: Homo sapiens, U-87 MG, U87-MG, 72 h
# Method in brief: as §2
smiles,measurement,setting,value
Cc1c(CN(C)CCOC(=O)[C@@H](N)C(C)C)oc2c1C(=O)C(=O)c1c-2ccc2c(C)cccc12 [BS-TA-71],improvement of anti-H9 activity as compared with tanshinone I,"[1]; H9, vs tanshinone I",28 fold
same,IC50,"[1]; Homo sapiens, H9, 72 h, read-out: IC50",0.125 µg/mL
same,IC90,"[1]; Homo sapiens, H9, 72 h, read-out: IC90",0.49 µg/mL
same,IC50,[2]; read-out: IC50,0.37 µg/mL
same,IC90,[2]; read-out: IC90,0.94 µg/mL
same,IC50,[3]; read-out: IC50,0.47 µg/mL
same,IC90,[3]; read-out: IC90,0.76 µg/mL
same,IC50,[4]; read-out: IC50,0.13 µg/mL
same,IC90,[4]; read-out: IC90,0.39 µg/mL
same,IC50,[5]; read-out: IC50,0.15 µg/mL
same,IC90,[5]; read-out: IC90,0.41 µg/mL
same,IC50,[6]; read-out: IC50,0.25 µg/mL
same,IC90,[6]; read-out: IC90,0.83 µg/mL
same,IC50,[7]; read-out: IC50,0.8 µg/mL
same,IC90,[7]; read-out: IC90,2.82 µg/mL
same,IC50,[8]; read-out: IC50,0.4 µg/mL
same,IC90,[8]; read-out: IC90,0.9 µg/mL
same,IC50,[9]; read-out: IC50,0.63 µg/mL
same,IC90,[9]; read-out: IC90,1.43 µg/mL
same,IC50,[10]; read-out: IC50,0.52 µg/mL
same,IC90,[10]; read-out: IC90,0.59 µg/mL
same,improvement of anti-Hela activity as compared with tanshinone I,"[11]; Hela, vs tanshinone I",more than 8 fold
same,IC50,"[11]; Homo sapiens, HeLa, 72 h, read-out: IC50",0.47 µg/mL
same,IC90,"[11]; Homo sapiens, HeLa, 72 h, read-out: IC90",1.75 µg/mL
same,IC50,[12]; read-out: IC50,0.66 µg/mL
same,IC90,[12]; read-out: IC90,1.85 µg/mL
same,improvement of anti-Hep-2 activity as compared with tanshinone I,"[13]; Hep-2, vs tanshinone I",more than 4 fold
same,IC50,"[13]; Homo sapiens, HEp-2, 72 h, read-out: IC50",0.62 µg/mL
same,IC90,"[13]; Homo sapiens, HEp-2, 72 h, read-out: IC90",1.76 µg/mL
same,IC50,[14]; read-out: IC50,0.61 µg/mL
same,IC90,[14]; read-out: IC90,1.79 µg/mL
same,IC50,[15]; read-out: IC50,0.41 µg/mL
same,IC90,[15]; read-out: IC90,2.24 µg/mL
same,IC50,[16]; read-out: IC50,0.4 µg/mL
same,IC90,[16]; read-out: IC90,4.73 µg/mL
same,IC50,[17]; read-out: IC50,0.92 µg/mL
same,IC90,[17]; read-out: IC90,3.74 µg/mL
same,IC50,[18]; read-out: IC50,0.14 µg/mL
same,IC90,[18]; read-out: IC90,1.28 µg/mL
same,IC50,[19]; read-out: IC50,1.66 µg/mL
same,IC90,[19]; read-out: IC90,3.39 µg/mL
same,IC50,[20]; read-out: IC50,0.66 µg/mL
same,IC90,[20]; read-out: IC90,1.55 µg/mL
